In ChEMBL document CHEMBL5649166, “RIP3 induces apoptosis independent of pronecrotic kinase activity” (Mol Cell, 2014):

Assays:
[1] = target: Mitogen-activated protein kinase kinase kinase 10 (Homo sapiens) (UniProt Q02779); assay: Residual activity of human MLK2/MAP3K10 using myelin basic protein as substrate at 1 uM in presence of 32P-ATP by Hotspot assay relative to control
[2] = target: Homeodomain-interacting protein kinase 1 (Homo sapiens) (UniProt Q86Z02); assay: Inhibition of human HIPK1 using myelin basic protein as substrate at 1 uM in presence of 32P-ATP by Hotspot assay relative to control; values are per cent of control
[3] = target: T1, Mitogen-activated protein kinase 12 (Homo sapiens) (UniProt P53778); assay: Inhibition of human P38g using myelin basic protein as substrate at 1 uM in presence of 32P-ATP by Hotspot assay relative to control; values are per cent of control
T1 sequence (whole entry): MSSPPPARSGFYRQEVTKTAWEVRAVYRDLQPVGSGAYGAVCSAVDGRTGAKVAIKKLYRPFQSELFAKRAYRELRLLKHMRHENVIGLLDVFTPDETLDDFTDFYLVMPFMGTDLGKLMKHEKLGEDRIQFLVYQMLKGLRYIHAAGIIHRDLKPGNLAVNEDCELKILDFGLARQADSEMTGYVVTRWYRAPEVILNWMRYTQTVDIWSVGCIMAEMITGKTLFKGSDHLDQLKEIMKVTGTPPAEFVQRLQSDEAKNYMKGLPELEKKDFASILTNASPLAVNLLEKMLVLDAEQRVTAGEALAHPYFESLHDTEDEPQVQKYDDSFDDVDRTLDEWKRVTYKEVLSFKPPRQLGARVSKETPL

[4] = target: G protein-coupled receptor kinase 4 (Homo sapiens) (UniProt P32298); assay: Inhibition of human GRK4 using casein as substrate at 1 uM in presence of 32P-ATP by Hotspot assay relative to control; values are per cent of control
G protein-coupled receptor kinase 4 (Homo sapiens), sequence (P32298 whole entry, looked up, canonical isoform): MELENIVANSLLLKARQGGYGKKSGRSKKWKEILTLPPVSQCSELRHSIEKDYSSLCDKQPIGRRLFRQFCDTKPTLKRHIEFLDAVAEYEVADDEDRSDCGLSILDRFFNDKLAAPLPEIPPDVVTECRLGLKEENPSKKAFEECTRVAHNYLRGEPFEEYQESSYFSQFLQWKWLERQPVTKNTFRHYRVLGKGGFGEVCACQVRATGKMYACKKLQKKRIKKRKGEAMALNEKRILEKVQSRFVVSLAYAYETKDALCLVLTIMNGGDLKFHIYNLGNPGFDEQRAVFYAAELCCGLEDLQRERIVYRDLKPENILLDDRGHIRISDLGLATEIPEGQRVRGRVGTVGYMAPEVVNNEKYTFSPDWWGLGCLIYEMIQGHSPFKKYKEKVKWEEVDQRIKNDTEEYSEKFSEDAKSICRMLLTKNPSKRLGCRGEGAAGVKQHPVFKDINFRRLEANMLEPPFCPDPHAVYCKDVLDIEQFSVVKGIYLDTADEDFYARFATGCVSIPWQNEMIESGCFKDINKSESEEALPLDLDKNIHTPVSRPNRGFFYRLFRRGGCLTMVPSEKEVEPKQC

[5] = target: Casein kinase I isoform gamma-1 (Homo sapiens) (UniProt Q9HCP0); assay: Inhibition of human CK1g1 using KRRRAL[pS]VASLPGL as substrate at 1 uM in presence of 32P-ATP by Hotspot assay relative to control; values are per cent of control
Casein kinase I isoform gamma-1 (Homo sapiens), sequence (Q9HCP0 whole entry, looked up, canonical isoform): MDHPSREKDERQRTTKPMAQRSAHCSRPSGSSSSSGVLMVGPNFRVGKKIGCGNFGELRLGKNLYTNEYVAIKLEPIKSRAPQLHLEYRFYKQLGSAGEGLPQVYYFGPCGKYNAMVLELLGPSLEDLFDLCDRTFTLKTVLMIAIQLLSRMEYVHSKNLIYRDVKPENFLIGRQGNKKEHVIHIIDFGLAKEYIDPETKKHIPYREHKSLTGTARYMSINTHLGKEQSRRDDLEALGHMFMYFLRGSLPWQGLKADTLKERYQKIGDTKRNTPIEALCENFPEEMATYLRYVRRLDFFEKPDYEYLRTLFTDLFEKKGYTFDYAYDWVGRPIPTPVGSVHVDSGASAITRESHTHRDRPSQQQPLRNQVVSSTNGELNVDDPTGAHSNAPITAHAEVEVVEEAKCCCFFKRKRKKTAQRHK

[6] = target: Calcium/calmodulin-dependent protein kinase type 1G (Homo sapiens) (UniProt Q96NX5); assay: Inhibition of human CAMK1g using KKALRRQETVDAL as substrate at 1 uM in presence of 32P-ATP by Hotspot assay relative to control; values are per cent of control
Calcium/calmodulin-dependent protein kinase type 1G (Homo sapiens), sequence (Q96NX5 whole entry): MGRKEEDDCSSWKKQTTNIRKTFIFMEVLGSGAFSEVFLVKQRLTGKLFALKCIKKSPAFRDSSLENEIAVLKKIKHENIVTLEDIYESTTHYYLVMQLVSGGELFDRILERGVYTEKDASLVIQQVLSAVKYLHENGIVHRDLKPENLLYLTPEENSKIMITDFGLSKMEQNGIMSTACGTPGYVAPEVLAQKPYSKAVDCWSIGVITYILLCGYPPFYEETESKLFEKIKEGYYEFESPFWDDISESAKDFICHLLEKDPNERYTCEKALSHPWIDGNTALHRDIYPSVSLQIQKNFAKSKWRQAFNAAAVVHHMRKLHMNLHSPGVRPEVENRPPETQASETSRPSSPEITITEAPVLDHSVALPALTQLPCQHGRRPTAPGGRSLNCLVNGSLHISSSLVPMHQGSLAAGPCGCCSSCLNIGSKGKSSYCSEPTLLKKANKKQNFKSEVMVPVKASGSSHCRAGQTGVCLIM

[7] = target: Protein kinase C theta type (Homo sapiens) (UniProt Q04759); assay: Residual activity of human PKCtheta using ERMRPRKRQGSVRRRV as substrate at 1 uM in presence of 32P-ATP by Hotspot assay relative to control
Protein kinase C theta type (Homo sapiens), sequence (Q04759 whole entry, looked up): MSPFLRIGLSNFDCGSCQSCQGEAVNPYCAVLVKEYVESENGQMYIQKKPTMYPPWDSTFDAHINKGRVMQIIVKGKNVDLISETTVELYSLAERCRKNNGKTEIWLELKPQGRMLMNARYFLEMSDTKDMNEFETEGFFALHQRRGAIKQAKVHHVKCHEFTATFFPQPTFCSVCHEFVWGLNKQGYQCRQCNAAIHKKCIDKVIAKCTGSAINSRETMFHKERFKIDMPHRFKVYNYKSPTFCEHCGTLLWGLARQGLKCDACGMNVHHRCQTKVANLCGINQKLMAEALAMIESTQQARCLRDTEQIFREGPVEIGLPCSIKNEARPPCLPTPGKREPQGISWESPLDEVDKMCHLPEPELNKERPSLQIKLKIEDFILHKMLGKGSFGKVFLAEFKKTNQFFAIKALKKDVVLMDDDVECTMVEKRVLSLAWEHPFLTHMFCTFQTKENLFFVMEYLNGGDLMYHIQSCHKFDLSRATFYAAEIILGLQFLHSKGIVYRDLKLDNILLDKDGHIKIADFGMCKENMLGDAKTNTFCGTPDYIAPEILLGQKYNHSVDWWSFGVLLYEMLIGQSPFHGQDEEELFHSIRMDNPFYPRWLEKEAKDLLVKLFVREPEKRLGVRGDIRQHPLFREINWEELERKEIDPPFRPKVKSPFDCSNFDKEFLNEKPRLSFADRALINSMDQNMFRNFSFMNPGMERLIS

[8] = target: T2, Muscle, skeletal receptor tyrosine-protein kinase (Homo sapiens) (UniProt O15146); assay: Inhibition of human MUSK using myelin basic protein as substrate at 1 uM in presence of 32P-ATP by Hotspot assay relative to control; values are per cent of control
T2 sequence (whole entry): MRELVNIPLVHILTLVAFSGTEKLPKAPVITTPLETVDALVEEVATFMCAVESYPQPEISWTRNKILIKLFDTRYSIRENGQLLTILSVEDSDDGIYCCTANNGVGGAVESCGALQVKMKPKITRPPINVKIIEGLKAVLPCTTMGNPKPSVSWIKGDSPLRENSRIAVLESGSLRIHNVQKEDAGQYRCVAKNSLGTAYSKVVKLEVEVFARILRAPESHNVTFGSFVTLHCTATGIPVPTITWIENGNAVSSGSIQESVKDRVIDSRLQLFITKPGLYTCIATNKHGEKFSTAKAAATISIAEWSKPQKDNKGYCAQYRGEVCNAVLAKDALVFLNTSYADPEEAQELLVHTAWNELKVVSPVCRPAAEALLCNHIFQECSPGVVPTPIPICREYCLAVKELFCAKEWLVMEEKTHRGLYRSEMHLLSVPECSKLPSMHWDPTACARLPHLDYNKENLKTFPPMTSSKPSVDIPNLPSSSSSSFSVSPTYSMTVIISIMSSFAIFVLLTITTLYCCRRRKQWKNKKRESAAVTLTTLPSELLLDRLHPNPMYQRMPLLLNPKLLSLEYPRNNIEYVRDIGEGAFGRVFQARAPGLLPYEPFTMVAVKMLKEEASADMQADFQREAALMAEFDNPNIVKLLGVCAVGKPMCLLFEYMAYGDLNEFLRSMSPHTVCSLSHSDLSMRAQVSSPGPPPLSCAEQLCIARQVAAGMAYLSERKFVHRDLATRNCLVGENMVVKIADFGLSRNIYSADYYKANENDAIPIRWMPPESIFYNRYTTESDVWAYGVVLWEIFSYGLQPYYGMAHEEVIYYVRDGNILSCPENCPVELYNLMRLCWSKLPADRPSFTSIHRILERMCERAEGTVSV

[9] = target: Calcium/calmodulin-dependent protein kinase type II subunit alpha (Homo sapiens) (UniProt Q9UQM7); assay: Inhibition of human CAMK2a using KKALRRQETVDAL as substrate at 1 uM in presence of 32P-ATP by Hotspot assay relative to control; values are per cent of control
Calcium/calmodulin-dependent protein kinase type II subunit alpha (Homo sapiens), sequence (Q9UQM7 whole entry): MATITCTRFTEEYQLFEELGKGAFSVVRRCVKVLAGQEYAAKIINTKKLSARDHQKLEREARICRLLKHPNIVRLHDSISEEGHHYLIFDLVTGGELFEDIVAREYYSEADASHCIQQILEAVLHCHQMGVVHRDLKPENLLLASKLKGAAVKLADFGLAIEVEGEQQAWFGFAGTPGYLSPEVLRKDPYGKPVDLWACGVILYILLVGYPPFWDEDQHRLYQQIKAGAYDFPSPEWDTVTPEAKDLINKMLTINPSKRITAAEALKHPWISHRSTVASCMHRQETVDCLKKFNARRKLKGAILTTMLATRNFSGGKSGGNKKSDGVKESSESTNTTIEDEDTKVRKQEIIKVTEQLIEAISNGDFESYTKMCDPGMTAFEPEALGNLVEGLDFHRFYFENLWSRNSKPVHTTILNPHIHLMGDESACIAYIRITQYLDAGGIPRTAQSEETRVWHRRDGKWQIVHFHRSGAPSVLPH

[10] = target: Tyrosine-protein kinase Srms (Homo sapiens) (UniProt Q9H3Y6); assay: Inhibition of human SRMS using poly[Glu:Tyr] (4:1) as substrate at 1 uM in presence of 32P-ATP by Hotspot assay relative to control; values are per cent of control
Tyrosine-protein kinase Srms (Homo sapiens), sequence (Q9H3Y6 whole entry): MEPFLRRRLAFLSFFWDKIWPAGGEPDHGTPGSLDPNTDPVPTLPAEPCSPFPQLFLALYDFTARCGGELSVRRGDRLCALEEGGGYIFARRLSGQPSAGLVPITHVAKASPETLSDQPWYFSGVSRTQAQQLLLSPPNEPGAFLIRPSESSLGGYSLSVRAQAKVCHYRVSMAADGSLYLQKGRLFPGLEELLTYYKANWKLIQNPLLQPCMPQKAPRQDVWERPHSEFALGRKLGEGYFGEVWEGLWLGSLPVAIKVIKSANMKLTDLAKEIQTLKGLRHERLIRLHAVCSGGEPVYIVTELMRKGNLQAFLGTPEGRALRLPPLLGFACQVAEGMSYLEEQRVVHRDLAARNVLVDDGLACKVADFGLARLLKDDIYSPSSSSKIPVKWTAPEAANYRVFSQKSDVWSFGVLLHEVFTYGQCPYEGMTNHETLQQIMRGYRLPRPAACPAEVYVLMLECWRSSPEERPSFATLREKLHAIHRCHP

[11] = target: T3, Serine/threonine-protein kinase 4 (Homo sapiens) (UniProt Q13043); assay: Inhibition of human MST1/STK4 using KKSRGDYMTMQIG as substrate at 1 uM in presence of 32P-ATP by Hotspot assay relative to control; values are per cent of control
T3 sequence (whole entry): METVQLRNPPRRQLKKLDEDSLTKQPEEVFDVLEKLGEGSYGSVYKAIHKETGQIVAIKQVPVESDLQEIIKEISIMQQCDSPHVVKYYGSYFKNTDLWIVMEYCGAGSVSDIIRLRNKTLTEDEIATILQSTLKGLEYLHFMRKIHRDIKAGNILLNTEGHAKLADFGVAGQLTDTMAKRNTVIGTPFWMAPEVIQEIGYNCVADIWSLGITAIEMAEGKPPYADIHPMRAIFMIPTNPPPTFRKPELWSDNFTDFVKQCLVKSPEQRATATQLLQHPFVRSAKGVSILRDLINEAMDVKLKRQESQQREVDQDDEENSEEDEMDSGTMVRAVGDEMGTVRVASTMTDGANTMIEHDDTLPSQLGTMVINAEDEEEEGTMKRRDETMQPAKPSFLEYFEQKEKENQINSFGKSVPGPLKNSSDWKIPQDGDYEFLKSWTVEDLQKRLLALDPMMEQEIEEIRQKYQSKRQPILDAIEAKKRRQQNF

Mitogen-activated protein kinase kinase kinase 10 (Homo sapiens), sequence (Q02779 whole entry, looked up): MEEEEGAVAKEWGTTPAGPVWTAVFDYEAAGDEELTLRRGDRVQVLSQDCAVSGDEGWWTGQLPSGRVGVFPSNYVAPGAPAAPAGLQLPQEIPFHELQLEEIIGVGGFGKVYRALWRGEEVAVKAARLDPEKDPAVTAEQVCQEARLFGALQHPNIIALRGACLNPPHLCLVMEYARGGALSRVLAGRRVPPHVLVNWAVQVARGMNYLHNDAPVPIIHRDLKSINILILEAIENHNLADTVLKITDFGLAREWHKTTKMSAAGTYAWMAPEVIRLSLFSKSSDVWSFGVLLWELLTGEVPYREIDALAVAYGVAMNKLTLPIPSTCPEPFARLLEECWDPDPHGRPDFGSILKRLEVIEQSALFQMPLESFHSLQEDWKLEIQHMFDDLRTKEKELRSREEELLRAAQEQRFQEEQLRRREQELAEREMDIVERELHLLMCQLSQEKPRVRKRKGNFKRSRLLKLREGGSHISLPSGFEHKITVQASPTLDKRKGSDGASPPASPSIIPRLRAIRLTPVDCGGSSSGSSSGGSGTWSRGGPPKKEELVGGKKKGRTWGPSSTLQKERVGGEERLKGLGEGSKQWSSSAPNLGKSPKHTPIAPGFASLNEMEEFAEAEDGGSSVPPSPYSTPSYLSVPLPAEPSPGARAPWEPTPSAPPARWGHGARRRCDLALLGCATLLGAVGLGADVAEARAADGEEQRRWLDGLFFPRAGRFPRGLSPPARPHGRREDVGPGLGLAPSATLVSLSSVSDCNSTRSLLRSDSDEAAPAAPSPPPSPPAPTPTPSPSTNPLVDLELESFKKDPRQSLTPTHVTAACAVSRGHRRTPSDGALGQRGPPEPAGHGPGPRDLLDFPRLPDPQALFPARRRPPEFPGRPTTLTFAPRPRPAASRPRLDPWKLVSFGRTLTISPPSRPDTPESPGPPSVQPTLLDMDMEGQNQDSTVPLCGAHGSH

Row | Compound | residual activity [1] [%] | residual activity [2] [%] | residual activity [3] [%] | residual activity [4] [%] | residual activity [5] [%] | residual activity [6] [%] | residual activity [7] [%] | residual activity [8] [%] | residual activity [9] [%] | residual activity [10] [%] | residual activity [11] [%]
1 | CNC(=O)c1ccc2c(c1)ncn2-c1ccc(CC(=O)OC(C)(C)C)cc1 | 90.9 | 87.5 | 95.7 | 94.6 | 97.1 | 94.2 | 104 | 103 | 94.7 | 105 | 95.3
2 | Cc1cc(-c2cnc(N)c3c(-c4ccc5scnc5c4)csc23)n(C)n1 | 97.5 | 102 | 105 | 97.2 | 94.2 | 90.9 | 98.3 | 105 | 104 | 78.8 | 96.9
3 | CC(C)S(=O)(=O)c1ccc2nccc(Nc3ccc4scnc4c3)c2c1 | 84.5 | 88.3 | 98.5 | 100 | 103 | 85.6 | 92.8 | 98.1 | 100 | 77.1 | 98.5
